{"source": "patent US10800732B2", "about": "“Substituted malonamides and their use as antibacterial drugs” (National Taiwan University, priority 2015, dated 2020)", "key": {"MRSA (ATCC 43300) [1]": {"tested_on": "MRSA (ATCC 43300)", "assay": "Minimal biofilm eradication concentration, MRSA in the biofilm", "format": "cell-based, methicillin-resistant Staphylococcus aureus", "conditions": "MRSA (ATCC 43300) in the biofilm", "procedure": "A biofilm is composed of attached microorganisms enclosed in an extracellular polymeric substance matrix. Bacteria embedded in the biofilm are protected from antibiotic-mediated killing and the immune response. Reports have shown that biofilm formation is an important factor contributing to S. aureus infections of the skin, lung and indwelling medical devices such as catheters. Thus, the effect of SC5005 on MRSA in a biofilm was assayed."}, "MRSA (ATCC 43300) [2]": {"tested_on": "MRSA (ATCC 43300)", "assay": "MIC, MRSA ATCC 43300", "format": "cell-based, methicillin-resistant Staphylococcus aureus", "conditions": "Staphylococcus aureus"}, "S. aureus NCTC 8325 [3]": {"tested_on": "S. aureus NCTC 8325", "assay": "MIC, S. aureus NCTC 8325 (CLSI broth microdilution / agar dilution)", "format": "cell-based, Staphylococcus aureus"}, "MRSA ATCC 33592": {"tested_on": "MRSA ATCC 33592", "assay": "MIC, MRSA ATCC 33592", "format": "cell-based, methicillin-resistant Staphylococcus aureus", "conditions": "Staphylococcus aureus"}, "S. aureus NCTC 8325 [4]": {"tested_on": "S. aureus NCTC 8325", "assay": "Biosynthesis of macromolecules (3H precursor incorporation)", "format": "cell-based, Staphylococcus aureus", "conditions": "4×MIC for 1 h", "procedure": "FIG. 5. Effect of SC5005 and SC5035 on the biosynthesis of macromolecules in S. aureus. […] Meanwhile, ofloxacin (1 mg/L), rifampicin (1 mg/L), erythromycin (2 mg/L), and vancomycin (2 mg/L) were used as control inhibitors for the biosynthesis of DNA, RNA, protein and cell wall, respectively. Data are means of three independent experiments. Error bars represent the SD.\nTo investigate the mode of action of SC5005, a new derivative, SC5035, with better selectivity of antibacterial activity over cytotoxicity was included in the assays. First, the impacts of these two compounds on the biosynthesis of important macromolecules, including DNA, RNA, protein and cell wall, in S. aureus NCTC 8325 were assessed. Bacteria cells were incubated with [^3H]thymidine to assess DNA synthesis, [^3H] uridine to assess RNA synthesis, [^3H] leucine to assess protein synthesis, and [^3H] N-Acetyl-D-glucosamine to assess cell wall synthesis. The ofloxacin, rifampicin, erythromycin and vancomycin were used as control inhibitor for DNA, RNA, protein, and cell wall biosynthesis, respectively. Inhibition of biosynthesis pathway was determined by a reduction in the radial isotope signal of bacteria."}, "S. aureus NCTC 8325 [5]": {"tested_on": "S. aureus NCTC 8325", "assay": "Intracellular ATP leakage (ATPlite one-step)", "format": "cell-based, Staphylococcus aureus", "conditions": "4×MIC for 15 min", "procedure": "FIG. 6. Intracellular ATP leakage of S. aureus treated with SC5005, SC5035 and antibiotics. […] Data was presented as percentage of intracellular ATP level to that of untreated bacteria cells (considered as 100%). Bars represent the mean, and error bars represent the SD (n=3). ***: p-value <0.001\nTo investigate whether SC5005 and SC5035 also act on bacterial cell membrane, intracellular ATP levels of S. aureus treated with SC5005, SC5035 and antibiotics for 15 min was determined by using ATPlite one-step assay kit."}, "S. aureus NCTC 8325 [6]": {"tested_on": "S. aureus NCTC 8325", "assay": "Membrane integrity (SYTO 9 / propidium iodide staining)", "format": "cell-based, Staphylococcus aureus", "conditions": "4×MIC (Triton X-100: 10%) for 15 minutes", "excerpt": "FIG. 7. Membrane integrity of S. aureus after SC5005, SC5035 and five common antibiotics treatment. […] SYTO 9, a green fluorescence dye, stains chromosome of all bacteria cells, regardless of the membrane integrity. In contrast, propidium iodide (PI), a red fluorescence dye, only stains cell with damaged membrane. Thus, bacteria cell with intact membrane can only be stained by SYTO 9, and cell with perforated membrane will be stained by both fluorescence dyes, showing a yellow color in merged images.\nTo further validate the action mechanism of SC5005 and SC5035, two fluorescence dyes were used for evaluation of membrane integrity of drug treated S. aureus. The propidium iodide dye only stains cells with perforated membrane, while the SYTO 9 stains all cells in spite of membrane integrity."}, "human red blood cells": {"tested_on": "human red blood cells", "assay": "Hemolytic activity", "format": "cell-based", "conditions": "1 h, concentration up to 128-fold of MIC against S. aureus", "procedure": "FIG. 9. Hemolytic activities of SC5005 and SC5035 on human red blood cell. Human red blood cells were incubated with SC5005 (A) and SC5035 (B) for 1 h followed by measuring the absorption of RBC released hemoglobin at 540 nm with microplate reader. Cell treated with 1% triton X-100 serves as positive control (P.C.; 100% hemolysis), and those treated with normal saline serves as negative control (N.C.) Bars represent the mean, and error bars represent the SD (n=3).\nAs data shown above, SC5005 and SC5035 can kill bacteria via forming pore in bacterial membrane. To see whether the pore-forming activity of these two compounds is specific for bacterial membrane, the hemolytic activities of these two agents on human red blood cells were accessed."}, "Human HT-29 cells": {"tested_on": "Human HT-29 cells", "assay": "LDH release assay (membrane integrity)", "format": "cell-based", "conditions": "1 hour, concentration up to 128-fold of MIC against S. aureus", "procedure": "FIG. 10. Membrane integrity of human cells treated with SC5005 and SC5035. Human HT-29 cells were treated with SC5005 and SC5035 for 1 hour followed by the evaluation of membrane integrity with LDH release assay. LDH released from HT-29 cells into culture medium was assessed by using CytoTox 96 NonRadioactive Cytotoxicity Assay. Cell treated with 1% triton X-100 serves as positive control (100% release). Bars represent the mean, and error bars represent the SD (n=3).\nTo further validate the activity of SC5005 and SC5035 on the membrane of human cells, the integrity of cellular membrane of cells treated with these two compounds was assessed by using LDH release assay. Human HT-29 cells were treated with SC5005 and SC5035 for 1 hour, and then the LDH released from cell into culture medium was assayed."}, "[7]": {"tested_on": "S. epidermidis ATCC 12228", "assay": "MIC, S. epidermidis ATCC 12228", "format": "cell-based", "conditions": "Staphylococcus epidermidis, ATCC12228"}, "MRSA ATCC 49476": {"tested_on": "MRSA ATCC 49476", "assay": "MIC, MRSA ATCC 49476", "format": "cell-based, methicillin-resistant Staphylococcus aureus", "conditions": "Staphylococcus aureus"}, "MRSA SCCmec VT": {"tested_on": "MRSA SCCmec VT", "assay": "MIC, MRSA SCCmec VT", "format": "cell-based, methicillin-resistant Staphylococcus aureus", "conditions": "Staphylococcus aureus, MRSA"}, "[8]": {"tested_on": "clinical isolated VISA strain", "assay": "MIC, VISA", "format": "cell-based, vancomycin-intermediate Staphylococcus aureus"}, "VRSA (SJC1200)": {"tested_on": "VRSA (SJC1200)", "assay": "MIC, VRSA", "format": "cell-based, vancomycin-resistant Staphylococcus aureus"}, "S. aureus NCTC 8325 [9]": {"tested_on": "S. aureus NCTC 8325", "format": "cell-based, Staphylococcus aureus", "conditions": "sub-inhibitory concentration for 30 consecutive days"}, "[10]": {"conditions": "MRSA (ATCC 43300), read-out: MIC"}}, "note": "Where two headings read alike, the source gives them in different places."}
{"compound": "CCCCCCCCCC(=O)N[C@@H](Cc1c[nH]c2ccccc12)C(=O)N[C@H](CC(N)=O)C(=O)N[C@@H](CC(=O)O)C(=O)N[C@@H]1C(=O)NCC(=O)N[C@@H](CCCN)C(=O)N[C@@H](CC(=O)O)C(=O)N[C@H](C)C(=O)N[C@@H](CC(=O)O)C(=O)NCC(=O)N[C@H](CO)C(=O)N[C@@H]([C@H](C)CC(=O)O)C(=O)N[C@@H](CC(=O)c2ccccc2N)C(=O)O[C@@H]1C", "note": "[Daptomycin]", "values": [{"measurement": "MBEC", "setting": "MRSA (ATCC 43300) [1]", "value": 1024, "unit": "mg/L"}, {"measurement": "MIC", "setting": "MRSA (ATCC 43300) [2]; [10]", "value": 0.5, "unit": "µg/mL"}]}
{"compound": "CC(=O)NC[C@H]1CN(c2ccc(N3CCOCC3)c(F)c2)C(=O)O1", "note": "[Linezolid]", "values": [{"measurement": "MBEC", "setting": "MRSA (ATCC 43300) [1]", "value": ">1024", "unit": "mg/L"}, {"measurement": "MBEC", "setting": "MRSA (ATCC 43300) [1]; listed as linezolid", "value": 1024, "unit": "mg/L"}, {"measurement": "MIC", "setting": "MRSA (ATCC 43300) [2]; [10]", "value": 1, "unit": "µg/mL"}]}
{"compound": "O=C(Nc1cc(Cl)cc(Cl)c1)C(CCCl)C(=O)Nc1ccc(Cl)c(C(F)(F)F)c1", "note": "(stereo not drawn) [SC5035, N^1-(4-chloro-3-(trifluoromethyl)phenyl)-2-(2-chloroethyl)-N^3-(3,5-dichlorophenyl)malonamide]", "values": [{"measurement": "MIC", "setting": "S. aureus NCTC 8325 [3]; Staphylococcus aureus, MSSA NCTC 8325, Table 6, read-out: MIC", "value": 0.25, "unit": "µg/mL"}, {"measurement": "MIC", "setting": "MRSA ATCC 33592; MRSA ATCC 33592, Table 6, read-out: MIC", "value": 0.25, "unit": "µg/mL"}, {"measurement": "incorporation signal in DNA, RNA, protein and cell wall biosynthesis", "setting": "S. aureus NCTC 8325 [4]", "value": "lower signal in all four macromolecule biosynthesis pathway"}, {"measurement": "intracellular ATP levels", "setting": "S. aureus NCTC 8325 [5]", "value": "significantly dropped"}, {"measurement": "propidium iodide staining (membrane integrity)", "setting": "S. aureus NCTC 8325 [6]", "value": "can be stained by propidium iodide"}, {"measurement": "hemolysis of RBC", "setting": "human red blood cells", "value": "no significant hemolysis"}, {"measurement": "LDH level released into culture medium", "setting": "Human HT-29 cells", "value": "no significant increase in the LDH level"}]}
{"compound": "CN[C@H](CC(C)C)C(=O)N[C@H]1C(=O)N[C@@H](CC(N)=O)C(=O)N[C@H]2C(=O)N[C@H]3C(=O)N[C@H](C(=O)N[C@H](C(=O)O)c4cc(O)cc(O)c4-c4cc3ccc4O)[C@H](O)c3ccc(c(Cl)c3)Oc3cc2cc(c3O[C@@H]2O[C@H](CO)[C@@H](O)[C@H](O)[C@H]2O[C@H]2C[C@](C)(N)[C@H](O)[C@H](C)O2)Oc2ccc(cc2Cl)[C@H]1O", "note": "[Vancomycin, reference compound]", "values": [{"measurement": "MIC", "setting": "S. aureus NCTC 8325 [3]; S. aureus (NCTC 8325), Table 3", "value": 0.5, "unit": "µg/mL"}, {"measurement": "MIC", "setting": "S. aureus NCTC 8325 [3]; Staphylococcus aureus, NCTC8325", "value": 0.5, "unit": "µg/mL"}, {"measurement": "MIC", "setting": "[7]", "value": 1, "unit": "µg/mL"}, {"measurement": "MIC", "setting": "MRSA ATCC 33592", "value": 1, "unit": "µg/mL"}, {"measurement": "MIC", "setting": "MRSA ATCC 49476", "value": 1, "unit": "µg/mL"}, {"measurement": "MIC", "setting": "MRSA SCCmec VT", "value": 1, "unit": "µg/mL"}, {"measurement": "MIC", "setting": "[8]; Staphylococcus aureus, VISA", "value": 4, "unit": "µg/mL"}, {"measurement": "increase in the value of MIC", "setting": "[8]; VISA compared to vancomycin-susceptible S. aureus (VSSA)", "value": 4, "unit": "fold"}, {"measurement": "MIC", "setting": "VRSA (SJC1200); Staphylococcus aureus, VRSA", "value": 512, "unit": "µg/mL"}, {"measurement": "decrease in the susceptibility", "setting": "VRSA (SJC1200); VRSA compared to VSSA", "value": "over five-hundred decrease in the susceptibility"}, {"measurement": "MBEC", "setting": "MRSA (ATCC 43300) [1]", "value": 1024, "unit": "mg/L"}, {"measurement": "MBEC", "setting": "MRSA (ATCC 43300) [1]; listed as vancomycin", "value": "> 1024", "unit": "mg/L"}, {"measurement": "MIC", "setting": "MRSA (ATCC 43300) [2]", "value": 1, "unit": "µg/mL"}, {"measurement": "fold MIC change (resistance)", "setting": "S. aureus NCTC 8325 [9]", "value": 4, "unit": "fold"}]}
{"compound": "Triton X-100 [reference compound]", "values": [{"measurement": "propidium iodide staining (membrane integrity)", "setting": "S. aureus NCTC 8325 [6]", "value": "can be stained by propidium iodide"}]}
